{"source": "patent US6489329B2", "about": "“Pharmaceutical compositions for the treatment of rhinitis” (UCB S.A., priority 1996, dated 2002)", "key": {"[1]": {"system": "patients suffering from pollen-associated allergic rhinitis", "experiment": "phase III multicenter double-blind 2-week study in pollen-associated (seasonal) allergic rhinitis", "type": "in vivo, human", "settings": "for Incidence of asthenia / Incidence of headache / Incidence of insomnia / Incidence of somnolence / proportion of patients with at least one adverse effect / PDS0 (percentage of days with a maximal symptom score equal to 0), mean / PDS1 (percentage of days with a maximal symptom score inferior or equal to 1), mean: 2-week study; for Mean of maximal 5-symptom scores, Visit 2: control visit one week after visit 1, investigators' 4-point scale 0-3; for global evaluation: patients in categories \"Good improvement\" and \"No more symptoms\", grouped: end of 2-week study, capsule morning and evening, 5-point scale; for Mean of maximal 5-symptom scores, Visit 1: enrolment visit, investigators' 4-point scale 0-3; for PDS0 (percentage of days with a maximal symptom score equal to 0), mean / PDS1 (percentage of days with a maximal symptom score inferior or equal to 1), mean: maximal score of five symptoms", "description": "(§1) The efficacy and safety of a composition of the invention were evaluated for the treatment of rhinitis, especially perennial and seasonal rhinitis, by the following phase III multicenter, double-blind studies. The composition of the invention was compared to:\n(§2) For each study, patients enrolled were ranged in three therapeutic groups and were treated as follows:\n(§3) The patients' clinical evaluations made by the investigators at the end of the studies were based on a 5-point scale (0=worsening; 1=no change; 2=slight improvement; 3=good improvement; 4=no more symptoms). The Cochran-Mantel-Haenszel test was used to compare the frequency distribution of the three groups, and for specific comparisons.\n(§4) At home, patients had to fill a daily record card where the five following symptoms were evaluated: sneezing, runny nose, blocked nose, itchy nose and itchy eyes. The symptoms scores were based on a 4-point scale (0: absent; 1: mild; 2: moderate; 3: severe). […] Global comparisons were made using the Kruskal-Wallis test and specific comparisons were made with the Wilcoxon rank sum test.\n(§5) Three visits were planned during the study: enrolment visit (Visit 1), control visit (Visit 2) one week after visit 1 and final visit (Visit 3). At visits 1 and 2, investigators evaluated the specific symptoms of allergic rhinitis (sneezing, rhinorrhea, nasal obstruction, nasal pruritus and ocular pruritus) using the 4-point scale (0: absent; 1: mild; 2: moderate; 3: severe). The rhinitis severity was evaluated by taking into account the maximal score of the five symptoms. The three groups were compared using the Cochran-Mantel-Haenszel test based on ranks.\n(§6) The patients were asked about possible adverse events at each control visit. In each treatment group, adverse events were counted and grouped in classes. The frequency distributions of these adverse effect numbers were compared using the Cochran-Mantel-Haenszel test.\nA total of 687 patients enrolled in this 2-week study, their ages ranging from 12 to 67 years. They had to be suffering from pollen-associated allergic rhinitis, with a prick-test or a RAST positive to pollen. […] On enrolment day, the patients had to be experiencing nasal obstruction and at least two of the four following symptoms: sneezing, rhinorrhea, nasal pruritus, ocular pruritus."}, "[2]": {"system": "patients suffering from perennial allergic rhinitis", "experiment": "phase III multicenter double-blind 3-week study in perennial allergic rhinitis", "type": "in vivo, human", "settings": "for Mean of maximal 5-symptom scores, Visit 2: control visit one week after visit 1, investigators' 4-point scale 0-3; for global evaluation by the investigators: patients in categories \"Good improvement\" and \"No more symptoms\", grouped: end of treatment (visit 3), capsule morning and evening, 5-point scale; for Mean of maximal 5-symptom scores, Visit 1: enrolment visit, investigators' 4-point scale 0-3; for PDS0 (percentage of days with a maximal symptom score equal to 0), mean / PDS1 (percentage of days with a maximal symptom score inferior or equal to 1), mean: patients' daily record card, five symptoms, 3-week study", "description": "as §1, §2, §3, §4, §5, §6\nA total of 554 patients were enrolled in this 3-week study. These patients ranged in age from 12 to 67 years old. They had to suffer from perennial allergic rhinitis diagnosed at least one year prior to the study, with radio allergosorbent test (RAST) or prick-test positive to perennial allergens including dust, mites and/or animal danders. On enrolment day, patients had to have the following symptoms: nasal obstruction, sneezing and rhinorrhea."}}, "note": "Counter-ions that a name gives are not always drawn.", "data": [{"smiles": "O=C(O)COCCN1CCN(C(c2ccccc2)c2ccc(Cl)cc2)CC1", "note": "(racemic) [Cetirizine, 2-[2-[4-[(4-chlorophenyl)phenylmethyl]-1-piperazinyl]ethoxy]-acetic dihydrochloride]", "values": [{"measurement": "Incidence of asthenia", "setting": "[1]", "value": 4, "unit": "%"}, {"measurement": "Incidence of headache", "setting": "[1]", "value": 4, "unit": "%"}, {"measurement": "Incidence of insomnia", "setting": "[1]", "value": 0, "unit": "%"}, {"measurement": "Incidence of somnolence", "setting": "[1]", "value": 6, "unit": "%"}, {"measurement": "proportion of patients with at least one adverse effect", "setting": "[1]", "value": 23, "unit": "%"}, {"measurement": "Mean of maximal 5-symptom scores, Visit 2", "setting": "[1]", "value": 1.76}, {"measurement": "global evaluation: patients in categories \"Good improvement\" and \"No more symptoms\", grouped", "setting": "[1]", "value": 56, "unit": "%"}, {"measurement": "Mean of maximal 5-symptom scores, Visit 1", "setting": "[1]", "value": 2.77}, {"measurement": "PDS0 (percentage of days with a maximal symptom score equal to 0), mean", "setting": "[1]", "value": 6.41, "unit": "%"}, {"measurement": "PDS1 (percentage of days with a maximal symptom score inferior or equal to 1), mean", "setting": "[1]", "value": 39.81, "unit": "%"}, {"measurement": "sedation, frequency of adverse event", "setting": "[2]; comparison between the three groups", "value": "more frequent"}, {"measurement": "Mean of maximal 5-symptom scores, Visit 2", "setting": "[2]", "value": 1.82}, {"measurement": "global evaluation by the investigators: patients in categories \"Good improvement\" and \"No more symptoms\", grouped", "setting": "[2]", "value": 46, "unit": "%"}, {"measurement": "Mean of maximal 5-symptom scores, Visit 1", "setting": "[2]", "value": 2.66}, {"measurement": "PDS0 (percentage of days with a maximal symptom score equal to 0), mean", "setting": "[2]", "value": 6.60, "unit": "%"}, {"measurement": "PDS1 (percentage of days with a maximal symptom score inferior or equal to 1), mean", "setting": "[2]", "value": 43.26, "unit": "%"}]}, {"smiles": "CN[C@@H](C)[C@@H](O)c1ccccc1.Cl", "note": "[Pseudoephedrine, (1S,2S)2-methylamino-1-phenylpropan-1-ol hydrochloride]", "values": [{"measurement": "Incidence of asthenia", "setting": "[1]", "value": 1, "unit": "%"}, {"measurement": "Incidence of headache", "setting": "[1]", "value": 7, "unit": "%"}, {"measurement": "Incidence of insomnia", "setting": "[1]", "value": 8.5, "unit": "%"}, {"measurement": "Incidence of somnolence", "setting": "[1]", "value": 3, "unit": "%"}, {"measurement": "proportion of patients with at least one adverse effect", "setting": "[1]", "value": 30, "unit": "%"}, {"measurement": "Mean of maximal 5-symptom scores, Visit 2", "setting": "[1]", "value": 1.82}, {"measurement": "global evaluation: patients in categories \"Good improvement\" and \"No more symptoms\", grouped", "setting": "[1]", "value": 58, "unit": "%"}, {"measurement": "Mean of maximal 5-symptom scores, Visit 1", "setting": "[1]", "value": 2.78}, {"measurement": "PDS0 (percentage of days with a maximal symptom score equal to 0), mean", "setting": "[1]", "value": 5.44, "unit": "%"}, {"measurement": "PDS1 (percentage of days with a maximal symptom score inferior or equal to 1), mean", "setting": "[1]", "value": 37.21, "unit": "%"}, {"measurement": "Mean of maximal 5-symptom scores, Visit 2", "setting": "[2]", "value": 1.81}, {"measurement": "global evaluation by the investigators: patients in categories \"Good improvement\" and \"No more symptoms\", grouped", "setting": "[2]", "value": 48, "unit": "%"}, {"measurement": "Mean of maximal 5-symptom scores, Visit 1", "setting": "[2]", "value": 2.72}, {"measurement": "PDS0 (percentage of days with a maximal symptom score equal to 0), mean", "setting": "[2]", "value": 6.97, "unit": "%"}, {"measurement": "PDS1 (percentage of days with a maximal symptom score inferior or equal to 1), mean", "setting": "[2]", "value": 41.57, "unit": "%"}]}]}
